Test results: patent US8802597B2, “Herbicidal pyrimidines” (E I du Pont de Nemours and Company, priority 2003, dated 2014)
Like-named read-outs stand apart in the source and are kept apart here.

Experiments:
Test in all cases: Test C pre/postemergence
Assay type in all cases: in vivo
[1] = system: johnsongrass (Sorghum halepense); settings: Sorghum halepense, pre-emergence, Preemergence, scale 0 to 100, read-out: Plant response rating, Johnsongrass
In short: (§1)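 Greenhouse pot test: seeds treated preemergence, or plants at 2–18 cm (1- to 4-leaf stage) treated postemergence, with compound in non-phytotoxic solvent plus surfactant. Visual rating versus untreated controls after 12–14 days, scale 0 (no effect) to 100 (complete control); dash means not tested.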

kochia (Kochia scoparia) = settings: Bassia scoparia; for pest or weed control at 62 g/ha: 62 g ai/ha; for pest or weed control at 125 g/ha: 125 g ai/ha; for pest or weed control at 250 g/ha: 250 g ai/ha; for pest or weed control at 500 g/ha: 500 g ai/ha
In short: as §1

[2] = system: pigweed (Amaranthus retroflexus); settings: Amaranthus retroflexus; for pest or weed control at 62 g/ha: 62 g ai/ha; for pest or weed control at 125 g/ha: 125 g ai/ha; for pest or weed control at 250 g/ha: 250 g ai/ha; for pest or weed control at 500 g/ha: 500 g ai/ha
In short: as §1

[3] = system: common (oilseed) sunflower (Helianthus annuus); settings: Helianthus annuus, pre-emergence, Preemergence, read-out: Plant response rating, Sunflower
In short: as §1

[4] = system: yellow nutsedge (Cyperus esculentus); settings: Cyperus; for pest or weed control at 62 g/ha: 62 g ai/ha; for pest or weed control at 125 g/ha: 125 g ai/ha; for pest or weed control at 250 g/ha: 250 g ai/ha; for pest or weed control at 500 g/ha: 500 g ai/ha
In short: as §1

[5] = system: velvetleaf (Abutilon theophrasti); settings: Abutilon theophrasti; for pest or weed control at 62 g/ha: 62 g ai/ha; for pest or weed control at 125 g/ha: 125 g ai/ha; for pest or weed control at 250 g/ha: 250 g ai/ha; for pest or weed control at 500 g/ha: 500 g ai/ha
In short: as §1

[6] = system: Surinam grass (Brachiaria decumbens); settings: Urochloa decumbens; for pest or weed control at 125 g/ha: 125 g ai/ha; for pest or weed control at 500 g/ha: 500 g ai/ha; for pest or weed control at 62 g/ha: 62 g ai/ha; for pest or weed control at 250 g/ha: 250 g ai/ha
In short: as §1

[7] = post-emergence, Postemergence, scale 0 to 100 (0 no effect, 100 complete control), read-out: Kochia plant response rating
[8] = post-emergence, Postemergence, scale 0 to 100, read-out: Plant response rating, Kochia
[9] = pre-emergence, Preemergence, scale 0 to 100, read-out: Plant response rating, Kochia
[10] = post-emergence, Postemergence, scale 0 to 100 (0 no effect, 100 complete control), read-out: Pigweed plant response rating
[11] = post-emergence, Postemergence, scale 0 to 100, read-out: Plant response rating, Pigweed
[12] = pre-emergence, Preemergence, scale 0 to 100, read-out: Plant response rating, Pigweed
[13] = post-emergence, Postemergence, scale 0 to 100 (0 no effect, 100 complete control), read-out: Nutsedge, Yellow plant response rating
[14] = post-emergence, Postemergence, scale 0 to 100, read-out: Plant response rating, Nutsedge, Yellow
[15] = pre-emergence, Preemergence, scale 0 to 100, read-out: Plant response rating, Nutsedge, Yellow
[16] = post-emergence, Postemergence, scale 0 to 100 (0 no effect, 100 complete control), read-out: Velvetleaf plant response rating
[17] = post-emergence, Postemergence, scale 0 to 100, read-out: Plant response rating, Velvetleaf
[18] = pre-emergence, Preemergence, scale 0 to 100, read-out: Plant response rating, Velvetleaf
[19] = post-emergence, Postemergence, scale 0 to 100 (0 no effect, 100 complete control), read-out: Surinam Grass plant response rating
[20] = post-emergence, Postemergence, scale 0 to 100, read-out: Plant response rating, Surinam Grass
[21] = pre-emergence, Preemergence, scale 0 to 100, read-out: Plant response rating, Surinam Grass

In the case of CCOC(=O)c1nc(C2CC2)nc(N)c1Cl [Compound 4, ethyl 6-amino-5-chloro-2-cyclopropyl-4-pyrimidinecarboxylate], the pest or weed control at 250 g/ha ([1]; 250 g ai/ha) was 90%, the pest or weed control at 500 g/ha ([1]; 500 g ai/ha) was 95% and the pest or weed control at 62 g/ha (kochia (Kochia scoparia); [7]) was 100%. For the same compound, the pest or weed control at 125 g/ha (kochia (Kochia scoparia); [7]) was 100%, the pest or weed control at 250 g/ha (kochia (Kochia scoparia); [8]) was 100% and the pest or weed control at 500 g/ha (kochia (Kochia scoparia); [8]) was 100%. For the same compound, the pest or weed control at 62 g/ha (kochia (Kochia scoparia); pre-emergence, Preemergence, scale 0 to 100, 0 no effect, 100 complete control, read-out: Plant response rating, Kochia) was 95%, the pest or weed control at 125 g/ha (kochia (Kochia scoparia); [9]) was 100% and the pest or weed control at 250 g/ha (kochia (Kochia scoparia); [9]) was 100%. For the same compound, the pest or weed control at 500 g/ha (kochia (Kochia scoparia); [9]) was 100%, the pest or weed control at 62 g/ha [2, 10] was 100% and the pest or weed control at 125 g/ha [2, 10] was 100%. For the same compound, the pest or weed control at 250 g/ha [2, 11] was 100%, the pest or weed control at 500 g/ha [2, 11] was 100% and the pest or weed control at 62 g/ha ([2]; pre-emergence, Preemergence, scale 0 to 100, 0 no effect, 100 complete control, read-out: Plant response rating, Pigweed) was 95%. For the same compound, the pest or weed control at 125 g/ha [2, 12] was 100%, the pest or weed control at 250 g/ha [2, 12] was 100% and the pest or weed control at 500 g/ha [2, 12] was 100%. It also gave a pest or weed control at 62 g/ha ([3]; 62 g ai/ha, scale 0 to 100, 0 no effect, 100 complete control) of 100%, a pest or weed control at 125 g/ha ([3]; 125 g ai/ha, scale 0 to 100) of 100% and a pest or weed control at 250 g/ha ([3]; 250 g ai/ha, scale 0 to 100) of 100%. It also gave a pest or weed control at 500 g/ha ([3]; 500 g ai/ha, scale 0 to 100) of 100%, a pest or weed control at 62 g/ha [4, 13] of 0% and a pest or weed control at 125 g/ha [4, 13] of 0%. The pest or weed control at 250 g/ha [4, 14] was 0%, the pest or weed control at 500 g/ha [4, 14] was 0% and the pest or weed control at 62 g/ha ([4]; pre-emergence, Preemergence, scale 0 to 100, 0 no effect, 100 complete control, read-out: Plant response rating, Nutsedge, Yellow) was 0%. It also gave a pest or weed control at 125 g/ha [4, 15] of 0%, a pest or weed control at 250 g/ha [4, 15] of 15% and a pest or weed control at 500 g/ha [4, 15] of 80%. It also gave a pest or weed control at 62 g/ha [5, 16] of 80%, a pest or weed control at 125 g/ha [5, 16] of 100% and a pest or weed control at 250 g/ha [5, 17] of 100%. The pest or weed control at 500 g/ha [5, 17] was 100%, the pest or weed control at 62 g/ha ([5]; pre-emergence, Preemergence, scale 0 to 100, 0 no effect, 100 complete control, read-out: Plant response rating, Velvetleaf) was 75% and the pest or weed control at 125 g/ha [5, 18] was 95%. It also gave a pest or weed control at 250 g/ha [5, 18] of 95%, a pest or weed control at 500 g/ha [5, 18] of 100% and a pest or weed control at 125 g/ha [6, 19] of 75%. The pest or weed control at 500 g/ha [6, 20] was 95%, the pest or weed control at 62 g/ha [6, 19] was 60% and the pest or weed control at 250 g/ha [6, 20] was 75%. The pest or weed control at 62 g/ha ([6]; pre-emergence, Preemergence, scale 0 to 100, 0 no effect, 100 complete control, read-out: Plant response rating, Surinam Grass) was 0%, the pest or weed control at 125 g/ha [6, 21] was 65% and the pest or weed control at 250 g/ha [6, 21] was 85%. The pest or weed control at 500 g/ha [6, 21] was 100%.
